Experiment [1] relates to HeLa cells. As to the kind of experiment: Cytotoxicity of released Dox, MTT assay. In kind it is cell-based. Conditions: HeLa cells treated 24 h with Dox-released incubation solutions of pH 5.0, 6.4, 7.4. As for the experimental part: Cell adhesion efficiencies were evaluated by incubating GelRed-labeled pDNets in cell media containing 2.5×10^5 Hela or NIH/3T3 cells for an hour. After the incubation, Calcein AM was used to stain the attached cells and the pDNets were washed three times with PBS. After staining, CLSM was used to visualize the respective fluorescence to determine the number of cells attached to each pDNet/mm^2. Evaluation of intracellular delivery of released Dox from pDNets was performed by loading pDNets with 20 nmol Dox. Dox-loaded pDNets were incubated in a pH 5.0, 6.4, and […] PBS solution for 32 h, which were then diluted 1, 2, and 4-fold with Dulbecco's modified Eagle's medium and used to treat 1×10^5 HeLa cells for 2 h. As a positive control, 20 nmol free Dox diluted similarly was used for treatment at final concentrations of 2, 4, and 8 μM to represent complete release of Dox. After the incubation, cell nuclei were stained with Hoechst and the intracellular delivery of Dox was compared using CLSM. […] After 24 h of treatment, cell viability was quantified using the MTT assay (Roche Diagnostics, Mannheim, Germany) following the manufacturer's protocol. […] The resulting formazan salts were dissolved by adding dimethyl sulfoxide, and the absorbance was measured at 570 nm using a multi-label microplate reader (Victor X5; Perkin Elmer).
(Tetrazolium assays rely on reduction of a dye to a coloured formazan, in cell work by metabolically active cells.)

Experiment [2] concerns HeLa cell-implanted BALB/c nude mice xenografts. The experiment can be described thus: Localized anticancer therapy, intratumoral injection. The note with it: single intratumoral injection, 2.5 mg/kg Dox, day 8. In kind it is in vivo. As for the experimental part:
All animal experiments were performed in compliance with the relevant laws and institutional guidelines of the Korea Institute of Science and Technology (KIST; KIST-2020-108). To evaluate the anticancer effects of pDNets, tumor-bearing BALB/c nude mice were prepared by injecting a suspension of 5×10^6 cells per mouse. The mice were divided into five groups (n=5): (1) PBS, (2) free DOX, (3) pDNet-H, (4) pDNet-M, and (5) pDNet-L. Each mouse was injected intratumorally with 2.5 mg/kg Dox when the size of the tumors was approximately 100-150 mm ^3. The tumor volumes and body weights of each mouse were observed every 2 days for 8 days. The length (L) and width (W) of the tumors were measured, and tumor volumes (V) were calculated using the following formula: V=L×W^2×0.52. To assess the biocompatibility of the pDNets, mice in each group were sacrificed after 8 days and the major organs were excised. To assess the biosafety of pDNets, the excised organs were paraffin-embedded and cut into 5 μm sections. Hematoxylin and eosin (H&E) staining was performed to observe the histopathological changes.

We go through one compound from patent publication US20230381322A1, “METHOD FOR PREPARING A DNA NETWORK WITH CONTROLLED CRYSTAL STRUCTURE AND A METHOD FOR INJECTING DRUGS USING THE DNA NETWORK” (UIF (University Industry Foundation), Yonsei University, priority 2022, published 2023).

In the case of `COc1cccc2c1C(=O)c1c(O)c3c(c(O)c1C2=O)C[C@@](O)(C(=O)CO)C[C@@H]3O[C@H]1C[C@H](N)[C@H](O)[C@H](C)O1` [free Dox, doxorubicin], the “in vitro therapeutic effect (cell viability, MTT)” value in experiment [1] was “most effective in vitro”. For the same compound, in experiment [2], the “tumor volume reduction relative to the control group” value was roughly 35% and the “tumor weight reduction relative to the control group” value is given as roughly 35%.
